Source: ChEMBL document CHEMBL1667751, “Synthesis and antimicrobial activity of highly functionalised novel β-lactam grafted spiropyrrolidines and pyrrolizidines” (2011)

How the values were obtained:
Staphylococcus aureus [1] = experiment: Antibacterial activity against Staphylococcus aureus at 100 ug/ml after 24 hrs agar diffusion method; type: functional; conditions: read-out: DIZ
Proteus mirabilis [2] = experiment: Antibacterial activity against Proteus mirabilis at 75 ug/ml after 24 hrs agar diffusion method; type: functional; conditions: read-out: DIZ
Staphylococcus aureus [3] = experiment: Antibacterial activity against Staphylococcus aureus at 25 ug/ml after 24 hrs agar diffusion method; type: functional; conditions: read-out: DIZ
Staphylococcus aureus [4] = experiment: Antibacterial activity against Staphylococcus aureus at 75 ug/ml after 24 hrs agar diffusion method; type: functional; conditions: read-out: DIZ
Salmonella typhi [5] = experiment: Antibacterial activity against Salmonella typhi at 50 ug/ml after 24 hrs agar diffusion method; type: functional, Salmonella enterica subsp. enterica serovar Typhi; conditions: Salmonella enterica, read-out: DIZ
Salmonella typhi [6] = experiment: Antibacterial activity against Salmonella typhi at 100 ug/ml after 24 hrs agar diffusion method; type: functional, Salmonella enterica subsp. enterica serovar Typhi; conditions: Salmonella enterica, read-out: DIZ
Proteus mirabilis [7] = experiment: Antibacterial activity against Proteus mirabilis at 50 ug/ml after 24 hrs agar diffusion method; type: functional; conditions: read-out: DIZ
Proteus mirabilis [8] = experiment: Antibacterial activity against Proteus mirabilis at 100 ug/ml after 24 hrs agar diffusion method; type: functional; conditions: read-out: DIZ
Proteus vulgaris [9] = experiment: Antibacterial activity against Proteus vulgaris at 75 ug/ml after 24 hrs agar diffusion method; type: functional; conditions: read-out: DIZ
Staphylococcus aureus [10] = experiment: Antibacterial activity against Staphylococcus aureus at 50 ug/ml after 24 hrs agar diffusion method; type: functional; conditions: read-out: DIZ
Proteus mirabilis [11] = experiment: Antibacterial activity against Proteus mirabilis at 25 ug/ml after 24 hrs agar diffusion method; type: functional; conditions: read-out: DIZ
Proteus vulgaris [12] = experiment: Antibacterial activity against Proteus vulgaris at 25 ug/ml after 24 hrs agar diffusion method; type: functional; conditions: read-out: DIZ
Proteus vulgaris [13] = experiment: Antibacterial activity against Proteus vulgaris at 100 ug/ml after 24 hrs agar diffusion method; type: functional; conditions: read-out: DIZ
Salmonella typhi [14] = experiment: Antibacterial activity against Salmonella typhi at 75 ug/ml after 24 hrs agar diffusion method; type: functional, Salmonella enterica subsp. enterica serovar Typhi; conditions: Salmonella enterica, read-out: DIZ
Proteus vulgaris [15] = experiment: Antibacterial activity against Proteus vulgaris at 50 ug/ml after 24 hrs agar diffusion method; type: functional; conditions: read-out: DIZ
Salmonella typhi [16] = experiment: Antibacterial activity against Salmonella typhi at 25 ug/ml after 24 hrs agar diffusion method; type: functional, Salmonella enterica subsp. enterica serovar Typhi; conditions: Salmonella enterica, read-out: DIZ

SMILES | zone of inhibition at 100 µg/mL (Staphylococcus aureus [1]) [mm] | zone of inhibition at 75 µg/mL (Proteus mirabilis [2]) [mm] | zone of inhibition at 25 µg/mL (Staphylococcus aureus [3]) [mm] | zone of inhibition at 75 µg/mL (Staphylococcus aureus [4]) [mm] | zone of inhibition at 50 µg/mL (Salmonella typhi [5]) [mm] | zone of inhibition at 100 µg/mL (Salmonella typhi [6]) [mm] | zone of inhibition at 50 µg/mL (Proteus mirabilis [7]) [mm] | zone of inhibition at 100 µg/mL (Proteus mirabilis [8]) [mm] | zone of inhibition at 75 µg/mL (Proteus vulgaris [9]) [mm] | zone of inhibition at 50 µg/mL (Staphylococcus aureus [10]) [mm] | zone of inhibition at 25 µg/mL (Proteus mirabilis [11]) [mm] | zone of inhibition at 25 µg/mL (Proteus vulgaris [12]) [mm] | zone of inhibition at 100 µg/mL (Proteus vulgaris [13]) [mm] | zone of inhibition at 75 µg/mL (Salmonella typhi [14]) [mm] | zone of inhibition at 50 µg/mL (Proteus vulgaris [15]) [mm] | zone of inhibition at 25 µg/mL (Salmonella typhi [16]) [mm]
CCOC(=O)[C@@H]1[C@@H]([C@H]2[C@@H](c3ccccc3)C(=O)N2c2ccc(OC)cc2)CN(C)C12C(=O)c1ccccc1C2=O | 22 | 14 | 11 | 18 | 9 | 18 | 13 | 18 | 18 | 15 | 11 | 11 | 21 | 13 | 14 | 
CCOC(=O)[C@@H]1[C@@H]([C@H]2[C@@H](Oc3ccccc3)C(=O)N2c2ccc(OC)cc2)C2CCCN2[C@]12C(=O)Nc1ccccc12 (some centres undefined) | 34 | 24 | 14 | 22 | 16 | 31 | 16 | 36 | 27 | 18 | 12 | 19 | > 40 | 21 | 20 | 13
CCOC(=O)[C@@H]1[C@@H]([C@H]2[C@@H](Oc3ccccc3)C(=O)N2c2ccc(OC)cc2)CN(C)[C@@]12C(=O)c1cccc3cccc2c13 | 19 | 15 |  | 15 | 11 | 16 | 11 | 20 | 15 | 9 | 9 | 9 | 20 | 14 | 11 | 9
CCOC(=O)[C@@H]1[C@@H]([C@H]2[C@@H](c3ccccc3)C(=O)N2c2ccc(OC)cc2)C2CCCN2[C@]12C(=O)Nc1ccccc12 (some centres undefined) | 31 | 21 | 9 | 21 | 14 | 26 | 18 | 32 | 25 | 16 | 14 | 13 | > 40 | 18 | 21 | 11
CCOC(=O)[C@@H]1[C@@H]([C@H]2[C@@H](Oc3ccccc3)C(=O)N2c2ccc(OC)cc2)CN(C)[C@]12C(=O)Nc1ccccc12 | 26 | 22 | 14 | 21 | 14 | 28 | 13 | 32 | 18 | 19 | 12 | 11 | 21 | 20 | 14 | 11
CN(C)[C@@H]1C(O)=C(C(N)=O)C(=O)[C@@]2(O)C(O)=C3C(=O)c4c(O)cccc4[C@@](C)(O)[C@H]3C[C@@H]12 [TETRACYCLINE] | > 40 | 28 | 18 | 28 | 22 | > 40 | 24 | > 40 | 28 | 22 | 18 | 18 | > 40 | 28 | 24 | 18
